# Literature values in the CATMoS acute toxicity set (Mansouri et al. 2021).
# Where “and” joins values, the source holds several entries; their conditions need not be identical. Equal values may be shown once.
# Assay: rat acute oral toxicity
# Conditions: in vivo
row,Compound,LD50
1,C=CCC1=C(C)[C@H](OC(=O)[C@H]2[C@H](C=C(C)C)C2(C)C)CC1=O (relative stereo),1320 mg/kg
2,CCN(CC)Cc1nccn1-c1ccc([N+](=O)[O-])cc1C(=O)c1ccccc1Cl,1580 mg/kg
3,CC(=O)Nc1ccc(-c2ccc(N)cc2)cc1,1630 mg/kg
4,CC(=O)C(N=Nc1cc(Cl)c(-c2cc(Cl)c(N=NC(C(C)=O)C(=O)Nc3ccc(C)cc3C)cc2Cl)cc1Cl)C(=O)Nc1ccc(C)cc1C (configuration not stated),2230 mg/kg
5,CCOCC(C)O (configuration not stated),4400 mg/kg
6,CCCN(CCC)N=O,480 mg/kg
7,CN1CCC(OC(=O)C2CCc3cc(C4CCCCC4)ccc32)CC1 (configuration not stated),572 mg/kg
8,CC(=O)c1ccccc1[N+](=O)[O-],1600 mg/kg
9,CCOc1ccc(N(N=O)C(C)=O)cc1,21 mg/kg
10,CC(=O)O[C@]1(C)CC[C@@]23C[C@@H]1C(C)(C)[C@@H]2CC[C@H]3C,44800 mg/kg
11,CCC(=O)O[C@H]1[C@H](O[C@@H]2[C@@H](C)[C@H](O[C@H]3C[C@@](C)(OC)[C@@H](O)[C@H](C)O3)[C@@H](C)C(=O)O[C@H](CC)[C@@](C)(O)[C@H](O)[C@@H](C)C(=O)[C@H](C)C[C@@]2(C)O)O[C@H](C)C[C@@H]1N(C)C,1450 mg/kg
12,CCN(CC)c1ccc(N=O)c(O)c1,315 mg/kg
13,CCN(CC)c1ccc(C=O)c(O)c1,2260 mg/kg
14,COP1(=S)OCc2ccccc2O1 (configuration not stated),102 mg/kg
15,COc1c(OP(=O)(OC(C)C)OC(C)C)cnn(C)c1=O,1.9 mg/kg
16,CC1CS1 (configuration not stated),254 mg/kg
17,Clc1cc(Cl)c2nsnc2c1Cl,1620 mg/kg
18,O=C1C(Cl)=C(NC(=O)C(Cl)Cl)C(=O)c2ccccc21,11700 mg/kg
19,CCOC(=O)NNc1ccc(N(CC)CC(C)O)nn1 (configuration not stated),2060 mg/kg
20,COP(=S)(Oc1ccc([N+](=O)[O-])cc1)Oc1ccc([N+](=O)[O-])cc1,312 mg/kg
21,COc1cc(N)c2c(c1N)C(=O)c1ccccc1C2=O,891 mg/kg
22,CCC(=O)c1ccc2c(c1)N(CCCN1CCN(C)CC1)c1ccccc1S2,600 mg/kg
23,CN1COCN(Cc2cnc(Cl)s2)C1=N[N+](=O)[O-],1560 mg/kg
24,O=C(Cl)c1ccccc1C(F)(F)F,8200 mg/kg

row,Compound,LD50
1,COP(=S)(OC)Oc1cc(C)c(Cl)cc1C(C)C,500 mg/kg
2,CC[C@H]1CN2CCc3cc(OC)c(OC)cc3[C@@H]2C[C@@H]1C[C@H]1NCCc2cc(OC)c(OC)cc21,0.012 mg/kg
3,CCN(CC)CCNc1c(Cl)cc(C)c2ncccc12,900 mg/kg
4,S=C1SSC2=NCCN12,380 mg/kg
5,COc1ccc(OC)c(C(O)CNC(=O)CN)c1 (configuration not stated),68.8 mg/kg
6,Nc1ccc(C(F)(F)F)cc1,128 mg/kg
7,CC1(C)Cc2cccc(OC(=O)NCSc3ccc(C(C)(C)C)cc3)c2O1,125 mg/kg
8,C[N+]1(C)CCCC1COC(=O)C(O)(c1ccccc1)C1CCCCC1 (configuration not stated),780 mg/kg
9,O=P(O)(O)CCCl,2200 mg/kg
10,CCCCCCCCOC(CBr)c1ccc(C2CCCC2)cc1 (configuration not stated),250 mg/kg
11,CCCN(CCC)C(=O)CN(CC)P(=S)(OCC)OCC,2080 mg/kg
12,CC(C)=C[C@H]1[C@@H](C(=O)OCc2coc(Cc3ccccc3)c2)C1(C)C,63 mg/kg
13,FC(F)(F)c1nc2c(Cl)c(Cl)c(Br)cc2[nH]1,2.78 mg/kg
14,CC[C@@]1(O)C(=O)OCc2c1cc1n(c2=O)Cc2cc3ccccc3nc2-1,153 mg/kg
15,CCOP(=S)(OCC)Oc1cc2ccccc2oc1=O,13 mg/kg
16,O=S(=O)(O)C(F)(F)C(F)(F)C(F)(F)C(F)(F)C(F)(F)C(F)(F)C(F)(F)C(F)(F)F,251 mg/kg and 154 mg/kg
17,C#CCN(C)c1ccccc1OC(=O)NC,60 mg/kg
18,CC1(C)C2CC=C(CCO)C1C2 (configuration not stated),890 mg/kg
19,CN1CN(CC(=O)O)CSC1=S,1000 mg/kg
20,CC(C)c1ccnc2ccccc12,940 mg/kg
21,C=CCC1(C(C)CCC)C(=O)N=C(O)NC1=O (configuration not stated),125 mg/kg
22,OC1(c2ccc(F)cc2)c2ccccc2C2=NCCN21 (configuration not stated),200 mg/kg
23,O=C1OCC2C1C1(Cl)C(Cl)=C(Cl)C2(Cl)C1(Cl)Cl (configuration not stated),105 mg/kg
24,NNC(=O)CSc1cc(Oc2ccc(Cl)cc2)ncn1,800 mg/kg

row,Compound,LD50
1,Cc1cc(N)ccc1N,98 mg/kg and 102 mg/kg
2,FC(F)(F)c1nc2c(Br)c(Cl)c(Cl)cc2[nH]1,2.21 mg/kg
3,COP(=S)(OC(C)C)SCN1C(=O)c2ccccc2C1=O (configuration not stated),50 mg/kg
4,CCCOC(=O)Nc1ccco1,1600 mg/kg
5,CNC(=O)ON=C1CS(=O)CCS1 (configuration not stated),12.3 mg/kg
6,COP(=S)(OC)Oc1ccc([N+](=O)[O-])c(Cl)c1,285 mg/kg
7,CCOC(=O)COC(=O)c1cc(Oc2ccc(C(F)(F)F)cc2Cl)ccc1[N+](=O)[O-],1480 mg/kg
8,CC(C)CCCCCOC(=O)CS,348 mg/kg
9,CC1COC(C(Cl)(Cl)Cl)O1 (configuration not stated),380 mg/kg
10,O=C(O)c1cccc(Cl)c1Cl,300 mg/kg
11,C#CCN1CCC2=C(C1)c1c(OC(=O)CCCN3CCCCC3)cc(C(C)C(C)CCCCC)cc1OC2(C)C (configuration not stated),130 mg/kg
12,Cc1ncc(CS)c(CO)c1O,3000 mg/kg
13,CC(=O)c1ccc(OCC(=O)NN)cc1,1820 mg/kg
14,NCCNCCNCc1ccccc1O,2300 mg/kg
15,CN1CCC(N(Cc2ccccc2)c2ccccc2)CC1,460 mg/kg
16,OC1(c2ccc(Cl)cc2)CCNCC1,465 mg/kg
17,c1ccc2sc(SN(C3CCCCC3)C3CCCCC3)nc2c1,6420 mg/kg
18,Cc1ccc2c(c1)[C@]13CCCC[C@@H]1[C@H](C2)N(C)CC3,690 mg/kg
19,Cc1sc2ccccc2c1CC1=NCCN1,74 mg/kg
20,CCc1cccc(CC)c1N(CC(=O)O)C(=O)CCl,2300 mg/kg
21,c1ccc2c(c1)Oc1ccccc1O2,1220 mg/kg
22,COc1nc(Cl)nc(OC)n1,870 mg/kg
23,CCN1CCNCC1,2160 mg/kg
24,CCC1C(c2ccccc2)=CCC(C(=O)O)C1C (configuration not stated),2350 mg/kg

row,Compound,LD50
1,O=c1oc2cc(O)ccc2s1,633 mg/kg
2,Clc1ccc(COC(Cn2ccnc2)c2ccc(Cl)cc2Cl)c(Cl)c1 (configuration not stated),920 mg/kg and 550 mg/kg
3,CC1(NC(N)=O)CCCC1,1200 mg/kg
4,CC(C)(C)OOC(=O)C(C)(C)C,4300 mg/kg
5,COP(=S)(OC)SCC(=O)N(c1ccc(Cl)cc1)C(C)C,472 mg/kg
6,O=C(O)C1CSCN1 (configuration not stated),875 mg/kg
7,OC1CCN(c2ccc(-c3ccc(Cl)cc3Cl)nn2)CC1,300 mg/kg
8,Clc1ccc([Si]23OCCN(CCO2)CCO3)cc1,520 mg/kg
9,Cc1ccn(CO)n1,1650 mg/kg
10,CC(=O)OC1CC2(O)C(CCC3(C)C(c4ccc(=O)oc4)CCC32O)C2(C)CCC(O)C=C12 (configuration not stated),4.2 mg/kg
11,COP(N)(=S)Oc1ccc(C(C)(C)C)cc1Cl (configuration not stated),820 mg/kg
12,C=C(C)C(=O)OCCSCCCC,5300 mg/kg
13,C=CC(C)=CCCC(C)(C)O,1700 mg/kg
14,COc1cc(C#N)ccc1OP(=S)(OC)OC,2710 mg/kg
15,O=C(O)CCCOc1ccc(Cl)cc1Cl,700 mg/kg
16,CC(COc1ccc(C(C)(C)C)cc1)OS(=O)OCCCl (configuration not stated),3900 mg/kg
17,CCCCc1ccn[nH]1,509 mg/kg
18,CC(C)OC(=O)C(C(=O)OC(C)C)=C1SCCS1,1190 mg/kg
19,O=C(CCC1CCN(Cc2ccccc2)CC1)c1ccc2c(c1)NCCCC2,334 mg/kg
20,CCCCNC(C)c1ccccc1 (configuration not stated),360 mg/kg
21,CN(C)CC[C@@H](c1ccc(Br)cc1)c1ccccn1,191 mg/kg
22,CN1C(=O)CN2CCc3ccccc3C2c2cc(Cl)ccc21 (configuration not stated),1730 mg/kg
23,CCOC(=O)c1c(N)sc2c1CCN(Cc1ccccc1)C2,1200 mg/kg
24,CCOP(=O)(OC=C(SCC)SCC)OCC,15 mg/kg

row,Compound,LD50
1,CN1CCC(=C2c3ccccc3Sc3ccccc32)CC1,1190 mg/kg and 550 mg/kg
2,O=C(O)C(F)(F)C(F)(F)C(F)(F)F,2140 mg/kg
3,Cc1c(Nc2ccccc2C(=O)O)ccc(O)c1Cl,1850 mg/kg
4,c1ccc2c(c1)CCN1CCN=C1C2,60 mg/kg
5,ClC1=C(Cl)C2(Cl)C3C4C=CC(O4)C3C1(Cl)C2(Cl)Cl (configuration not stated),68 mg/kg
6,Cc1ccc2ccccc2c1,1630 mg/kg
7,CCCCN(CC)N=O,380 mg/kg
8,CCOC(=O)C(C)(CC)Oc1ccc(Cc2ccc(Cl)cc2)cc1 (configuration not stated),9000 mg/kg
9,Cc1cc(C2CCCCC2)n(O)c(=O)c1,2350 mg/kg
10,CCN(CC)C(=O)c1nnn(-c2ccccc2)c1C,500 mg/kg
11,CNC(=O)Oc1cccc2sccc12,70 mg/kg
12,Cc1c(Cl)c(Br)cc2[nH]c(C(F)(F)F)nc12,30 mg/kg
13,NC(=O)Nc1cccc2c3c([nH]c12)CCCC3,2770 mg/kg
14,CC(C)c1cc([N+](=O)[O-])cc([N+](=O)[O-])c1O,63 mg/kg
15,CCN(CCO)CCn1c(Cc2ccccc2)nc2c1c(=O)n(C)c(=O)n2C,1140 mg/kg
16,CCn1cc(C(=O)O)c(=O)c2cnc(N3CCNCC3)nc21,16000 mg/kg
17,C=CCC(N)Cc1ccccc1 (configuration not stated),680 mg/kg
18,Nc1ccc(F)c([N+](=O)[O-])c1,1100 mg/kg
19,CCOC(=O)/C=C/C(=O)OCC,1780 mg/kg
20,CC(O)COS(C)(=O)=S (configuration not stated),794 mg/kg
21,CCOCCc1ccc(OCCN=c2[nH]cnc(CC)c2Cl)c(C)c1C,115 mg/kg
22,COP(=O)(SC)SC,26 mg/kg
23,CC(NNC(=O)c1ccccc1)c1ccccc1 (configuration not stated),675 mg/kg
24,CN(C)CCC(c1ccc(Br)cc1)c1ccccn1 (configuration not stated),318 mg/kg

row,Compound,LD50
1,ClC=Cc1ccccc1,5200 mg/kg
2,NS(=O)(=O)c1ccc(Cl)c(S(N)(=O)=O)c1,340 mg/kg
3,Clc1nc(Cl)c(Cl)[nH]1,11 mg/kg
4,CN1CCN(C(=O)N/N=C/c2ccc([N+](=O)[O-])o2)CC1,750 mg/kg
5,CCN1CCC(=C(c2ccccc2)c2ccccc2)C1,166 mg/kg and 450 mg/kg
6,Fc1cc(Br)c2nc(C(F)(F)F)[nH]c2c1,5.65 mg/kg
7,CSc1nc(N=[N+]=[N-])nc(NC(C)C)n1,3600 mg/kg
8,CC(C)C12C=CC(C)(CC1)OO2 (configuration not stated),200 mg/kg
9,CCC1(C)Oc2cccc(OC(=O)NC)c2O1 (configuration not stated),25 mg/kg
10,COc1cc(C(=O)OCCCCN2CCN(c3ccccc3)CC2)cc(OC)c1OC,2500 mg/kg
11,COP(=O)(OC)OC(Cl)C(Cl)(Br)Br (configuration not stated),49 mg/kg
12,CCCCCCCCc1ccc(C(C[n+]2ccccc2)OCCCC)cc1 (configuration not stated),250 mg/kg
13,COP(=O)(OC1CCCCC1)Sc1ccc(Cl)cc1 (configuration not stated),160 mg/kg
14,COc1ccc2c(c1)c(CC(=O)OCC(=O)O)c(C)n2C(=O)c1ccc(Cl)cc1,24.2 mg/kg
15,N#CCCN(CCN)CCN,4550 mg/kg
16,Fc1ccc(-c2cccs2)cc1,500 mg/kg
17,CN1CC(O)N(c2nnc(C(C)(C)C)s2)C1=O (configuration not stated),1540 mg/kg
18,Cc1nn(-c2cc(NS(C)(=O)=O)c(Cl)cc2Cl)c(=O)n1C(F)F,2860 mg/kg
19,NC1CC1,445 mg/kg
20,CCc1cccc(CC)c1N(CNC(C)=O)C(=O)CCl,3100 mg/kg
21,CNC(=O)Oc1ccc(C)c(C)c1C,318 mg/kg
22,CCN(CC)CCNC(=O)COc1cc(OC)c(OC)c(OC)c1,1760 mg/kg
